Laboratory results reported in publication PMC5093622, “Structural characterisation of high affinity Siglec-2 (CD22) ligands in complex with whole Burkitt’s lymphoma (BL) Daudi cells by NMR spectroscopy” (Scientific Reports, 2016).
Values belong to the compound of their own block, whether it stands above or below them.

How the values were obtained:
[1] = test system: Siglec-2; conditions: cited from earlier work
[2] = molecular target: T1, Siglec-2 Fc chimeras (Homo sapiens, UniProt P20273); assay: Surface Plasmon Resonance (SPR) assay; format: binding
T1 construct: the three N-terminal Ig-domains of Siglec-2 were fused to the C-terminal human IgG1 Fc domain; made in house; host or cells: CHO-Lec1
Method: Recombinant Siglec-2 (CD22) Fc-chimeras were expressed in CHO-Lec1 and protein purification was performed as described. The recombinant Siglec-2-Fc chimera, in which the three N-terminal Ig-domains of Siglec-2 were fused to the C-terminal human IgG1 Fc domain, was expressed in CHO-Lec1 cells.
Siglec-Fc chimeras were either captured to anti-Fc antibody-derivatised dextran surface of a Reichert SR7500DC flow cell or directly immobilized by amide coupling. N-acetylneuraminic acid derivatives at various concentrations in PBS were passed over the flow cell at a flow rate of 20 μL/min followed by buffer for dissociation. Specific binding was determined by subtracting the signal obtained from the reference cell (ethanolamine derivatised dextran surface) from the sample cell derivatised with Siglec-2 Fc chimeras. The data were analysed and fitted using the software Scrubber (BioLogic). Corresponding sensorgrams for 7 and 8 are shown in Supplementary Figure 2a,b, respectively.

[3] = test system: T2, Siglec-2 transiently expressed on HEK293T cells; assay: STD NMR binding to untransfected and Siglec-2 transfected HEK293T cells; design: species or system human
T2 construct: host or cells: HEK293T
Method: (§1) STD NMR spectra were performed using a Bruker Advance 600 MHz spectrometer, equipped with a 5-mm TXI probe with triple axis gradients at 283 K. 5 × 10^5 BL Daudi and 1 × 10^6 HEK293T cells were washed three times with the optimised deuterated NMR buffer by centrifugation at 1,300 rpm, at room temperature for 5 min and resuspending in 200 μL. The ligand concentration was adjusted to 0.5 mM for all experiments. To determine the binding epitope of the ligands when bound to cells STDD (Saturation Transfer Double Difference) spectra were generated by subtracting STD NMR signals from the ligand-cell complex from the spectrum obtained in the absence of cells or protein.
The full-length codon-optimized coding sequence of Siglec-2 (Uniprot entry P20273-1) cloned in plasmid pD2517 was purchased from DNA2.0 (Menlo Park, CA, USA). Plasmid amplification was performed by transformation into chemically competent E. coli NEB 5-alpha (Ipswich, MA, USA) followed by purification using a NucleoBond XTRA EF Plasmid Purification Kit (Machery Nagel, Duren, Germany, EU). […] Transfection efficiency was monitored by flow cytometry analysis 24 and 48 h post-transfection. […]

[4] = test system: T3, Siglec-2 expressed on intact Burkitt's lymphoma (BL) Daudi cells; assay: STD NMR binding to intact BL Daudi cells; design: species or system human; conditions: for STD NMR signals in the presence of BL Daudi cells: 0.5 mM ligand, 5.0 × 10^5 BL Daudi cells, 283 K
T3 construct: host or cells: BL Daudi cells
Source text: Anti-human Siglec-1 (CD169)-FITC, (clone: 7-239); Siglec-3 (CD33)-FITC, (clone: AC104.3E3); Siglec-5 (CD170)-FITC (clone: 1A5); Siglec-7 (CD328)-VioBlue, (clone: REA214); Siglec-8-FITC, (clone: 7C9) and relevant isotype controls were purchased from Miltenyi Biotech (Bergisch Gladbach, Germany, UE). Mouse anti-human Siglec-2 (CD22) primary antibody (clone RFB4) and the relevant isotype control (clone 1E2.2) were purchased from Merck Group (Darmstadt, Germany, UE). The rat anti-mouse secondary antibody BV421 conjugated was purchased from BD Biosciences (San Jose, CA, USA). Rabbit anti-human Siglec-4 (Myelin Associated Glycoprotein, MAG) was purchased from LifeSpan BioSciences (Seattle, WA, USA). The Donkey anti-rabbit secondary antibody (Clone Poly4064)-BV421 conjugated was purchased from Biolegend (San Diego, CA, USA). Anti-human Siglec-5/Siglec-14-APC (Clone 194128), Siglec-6 (CD327)-APC (Clone 767329), Siglec-9-FITC (Clone 191240); Goat Siglec-10-PE Affinity Purified PAb, Goat Siglec-11-PE Affinity Purified PAb, Goat IgG-PE control, Siglec-16-APC (Clone 706022), and relevant isotypes were purchased from R&D Systems (Minneapolis, MN, USA). BL Daudi and HEK293T cells were incubated with the antibodies for one hour at 4 °C in PBS supplemented with 1% FCS (PBS-FBS) at a ratio of 1 μg of antibody per 1 × 10^6 cells. The cells were washed three times and then suspended in 1 mL of PBS-FBS buffer prior to flow cytometry analysis. Propidium iodide was used at a concentration of 10 ug/mL to differentiate viable from non-viable cells. Secondary antibodies were used according to the suppliers’ instructions. A CyAn ADP Flow Cytometer and Kaluza Flow Cytometry software were used for flow cytometric analysis (Beckman Coulter, Brea, CA, USA). For sorting the BL Daudi cells into Siglec-2^low and Siglec-2^high fractions, antibody staining was achieved as described above. RPMI-1640 medium containing 50% v/v FBS was used for collecting sorted cells to minimise cell damage. Cells were sorted into low and high expressing Siglec-2 groups based on their fluorescence intensity, using MoFlo XDP (Beckman Coulter, CA, USA).
as §1
Mild periodate treatment to disrupt cis-binding was performed following published procedures. BL Daudi cells were resuspended in phosphate buffer (pH 7.4) containing freshly dissolved 2 mM NaIO4 and incubated at 4 °C in the dark. After 30 min, the excess of periodate was quenched by adding 10 μL of 20% deuterated glycerol followed by immediate washing with deuterated buffer optimised for cell NMR experiments. The STD NMR on-resonance frequency was set to −1.00 ppm and the off-resonance to 300 ppm. To ensure the viability of the cells during NMR acquisition 256 scans were chosen resulting in a total acquisition time of 53 min.

[5] = design: method as in PMID 10589082; conditions: patients treated with Rituximab; cited from earlier work

T1 sequence (P20273 with tags, fused parts or gaps limits assumed): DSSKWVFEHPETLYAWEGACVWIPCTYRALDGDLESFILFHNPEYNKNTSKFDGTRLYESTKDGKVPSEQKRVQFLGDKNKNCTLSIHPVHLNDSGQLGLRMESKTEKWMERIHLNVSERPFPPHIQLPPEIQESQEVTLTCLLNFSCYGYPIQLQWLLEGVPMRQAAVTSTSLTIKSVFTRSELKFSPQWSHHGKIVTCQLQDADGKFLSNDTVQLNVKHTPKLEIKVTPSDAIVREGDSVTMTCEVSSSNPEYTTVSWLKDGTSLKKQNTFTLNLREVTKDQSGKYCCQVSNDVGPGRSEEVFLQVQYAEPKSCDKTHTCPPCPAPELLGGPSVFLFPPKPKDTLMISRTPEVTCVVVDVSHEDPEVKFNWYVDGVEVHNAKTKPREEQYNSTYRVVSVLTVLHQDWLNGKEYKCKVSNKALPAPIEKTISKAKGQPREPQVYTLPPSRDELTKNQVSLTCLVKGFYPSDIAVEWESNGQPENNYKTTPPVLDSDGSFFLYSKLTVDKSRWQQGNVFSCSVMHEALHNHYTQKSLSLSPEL

Compound: COC1(C(=O)O)CC(O)C(NC(C)=O)C(C(O)C(O)CO)O1 (stereo not drawn) [compound 1, Neu5Acα2Me]
IC50 ([1]; read-out: IC50 value (binding potency for Siglec-2)): 1400 µM

Compound: OC[C@H]1O[C@@](CO)(O[C@H]2O[C@H](CO)[C@@H](O)[C@H](O)[C@H]2O)[C@@H](O)[C@@H]1O [sucrose, reference compound]
STD NMR signals in the presence of BL Daudi cells [4]: no STD NMR signals can be detected

Compound: Rituximab: anti-CD20 antibody
patients suffering from severe side effects [5]: 80%

Further lines, with some results ahead:

Kd [2]: 4.34 µM
Compound: COC1(C(=O)O)CC(O)C(NC(C)=O)C(C(O)C(O)CNC(=O)c2ccc(-c3ccccc3)cc2)O1 (stereo not drawn) [compound 2, 9-BPC-Neu5Acα2Me, reference compound]
increase of overall potency by a factor ([1]; relative to Neu5Acα2Me (1)): 224

Kd [2]: 0.66 µM
Compound: COC1(C(=O)O)CC(NC(=O)c2cccc([N+](=O)[O-])c2)C(NC(C)=O)C(C(O)C(O)CNC(=O)c2ccc(-c3ccccc3)cc2)O1 (stereo not drawn) [compound 3, 9-biphenylcarboxamido-4-meta-nitrophenyl-carboxamido-Neu5Acα2Me]
increase in STD NMR signal intensity, Siglec-2 transfected versus untransfected HEK293T cells ([3]; 1.0 × 10^6 cells, 283 K): 75 fold
STD NMR signal intensity with non-transfected HEK293T cells ([3]; 1.0 × 10^6 untransfected cells): Very low signal intensity
fold higher affinity than 9-BPC-Neu5Acα2Me (2) ([1]; relative to 2): 15 fold
STD NMR signals in the presence of BL Daudi cells [4]: strong and significant signals
increase in absolute STD NMR signal intensity, Siglec-2^high versus Siglec-2^low BL Daudi cells ([4]; N-acetyl methyl protons, 5.0 × 10^5 sorted cells): 46%
change in STD NMR signal intensities with periodate pretreated BL Daudi cells ([4]; cells pre-treated with 2 mM NaIO4, versus untreated cells): significant increase

Kd [2]: 0.182 µM
Compound: CC(=O)N[C@@H]1[C@@H](NC(=O)c2cccc([N+](=O)[O-])c2)[C@H](O)[C@](OCc2cn(CC(=O)O)nn2)(C(=O)O)O[C@H]1[C@H](O)[C@H](O)CNC(=O)c1ccc(-c2ccccc2)cc1 [compound 7]
STD NMR signals in the presence of BL Daudi cells [4]: strong STD NMR signals

Kd [2]: 0.175 µM
Compound: COc1cccc(C(=O)N[C@@H]2[C@@H](NC(C)=O)[C@H]([C@H](O)[C@H](O)CNC(=O)c3ccc(-c4ccccc4)cc3)O[C@@](OCc3cn(CC(=O)O)nn3)(C(=O)O)[C@H]2O)c1 [compound 8, 9-BPC-2-(4-carboxymethyl-[1,2,3]triazol-1-yl)-3-hydroxy-4-meta-methoxyphenyl-carboxamido-Neu5Acα2Me]
